Test system: Mus musculus
Experiment: Compound was evaluated in vivo for Pharmacology response in the mouse model Spontaneous Activity
Type: functional

CCCCCc1cc(O)c2c(c1)OC(C)(C)[C@@H]1CCC(C)=C[C@@H]21 [DRONABINOL]
ED50: 2.9 µmol/kg
